Laboratory results from ChEMBL document CHEMBL1152219, “Synthesis and use of sulfonamide-, sulfoxide-, or sulfone-containing aminoglycoside-CoA bisubstrates as mechanistic probes for aminoglycoside N-6'-acetyltransferase” (Bioorg Med Chem Lett, 2008).
pKi: −log10 of the molar value.

Experiment: Inhibition of aminoglycoside N-6'-acetyltransferase Ii

Structure (SMILES)	pKi
CC(C)(COP(=O)(O)OP(=O)(O)OC[C@H]1O[C@@H](n2cnc3c(N)ncnc32)[C@H](O)[C@@H]1OP(=O)(O)O)[C@@H](O)C(=O)NCCC(=O)NCCSCCS(=O)(=O)NC[C@H]1O[C@H](O[C@H]2[C@H](O)[C@@H](O)[C@H](N)C[C@@H]2N)[C@H](N)[C@@H](O)[C@@H]1O	5.80
CC(C)(COP(=O)(O)OP(=O)(O)OC[C@H]1O[C@@H](n2cnc3c(N)ncnc32)[C@H](O)[C@@H]1OP(=O)(O)O)[C@@H](O)C(=O)NCCC(=O)NCC[S+]([O-])CCC(=O)NC[C@H]1O[C@H](O[C@H]2[C@H](O)[C@@H](O)[C@H](N)C[C@@H]2N)[C@H](N)[C@@H](O)[C@@H]1O (some centres not stated)	5.70
CC(C)(COP(=O)(O)OP(=O)(O)OC[C@H]1O[C@@H](n2cnc3c(N)ncnc32)[C@H](O)[C@@H]1OP(=O)(O)O)[C@@H](O)C(=O)NCCC(=O)NCCS(=O)(=O)CC(=O)NC[C@H]1O[C@H](O[C@H]2[C@H](O)[C@@H](O)[C@H](N)C[C@@H]2N)[C@H](N)[C@@H](O)[C@@H]1O	6.57

Stronger by pKi, values ahead:

pKi	Structure (SMILES)
7.12	CC(C)(COP(=O)(O)OP(=O)(O)OC[C@H]1O[C@@H](n2cnc3c(N)ncnc32)[C@H](O)[C@@H]1OP(=O)(O)O)[C@@H](O)C(=O)NCCC(=O)NCCSCC(=O)NC[C@H]1O[C@H](O[C@H]2[C@H](O)[C@@H](O)[C@H](N)C[C@@H]2N)[C@H](N)[C@@H](O)[C@@H]1O
7.37	CC(C)(COP(=O)(O)OP(=O)(O)OC[C@H]1O[C@@H](n2cnc3c(N)ncnc32)[C@H](O)[C@@H]1OP(=O)(O)O)[C@@H](O)C(=O)NCCC(=O)NCCSCCC(=O)NC[C@H]1O[C@H](O[C@H]2[C@H](O)[C@@H](O)[C@H](N)C[C@@H]2N)[C@H](N)[C@@H](O)[C@@H]1O
7.22	CC(C)(COP(=O)(O)OP(=O)(O)OC[C@H]1O[C@@H](n2cnc3c(N)ncnc32)[C@H](O)[C@@H]1OP(=O)(O)O)[C@@H](O)C(=O)NCCC(=O)NCC[S+]([O-])CC(=O)NC[C@H]1O[C@H](O[C@H]2[C@H](O)[C@@H](O)[C@H](N)C[C@@H]2N)[C@H](N)[C@@H](O)[C@@H]1O (some centres not stated)
7.05	CC(C)(COP(=O)(O)OP(=O)(O)OC[C@H]1O[C@@H](n2cnc3c(N)ncnc32)[C@H](O)[C@@H]1OP(=O)(O)O)[C@@H](O)C(=O)NCCC(=O)NCCS(=O)(=O)CCC(=O)NC[C@H]1O[C@H](O[C@H]2[C@H](O)[C@@H](O)[C@H](N)C[C@@H]2N)[C@H](N)[C@@H](O)[C@@H]1O
